{"source": "patent US20100047227A1", "about": "“NOVEL ANTICANCER CATHEPSIN FORMULATIONS AND ANTICANCER AGENT FOR USE IN COMBINED ANTICANCER THERAPY” (priority 2006, published 2010)", "type_in_all_cases": "cell-based", "key": {"[1]": {"test_system": "human prostate cancer ALVA-41 cells", "experiment": "survival rate of cells (Cell Counting Kit-8), ALVA-41 cells", "conditions": "ALVA-41 cells, 20 hours, neutral pH, 10-100 μg/ml", "protocol": "(§1) The survival rate of cells was measured by Cell Counting Kit-8 in accordance with a manufacturer's manual. The method will be described briefly as follows. A 96-well (each 100 μl) plate was inoculated with cells (1×10^4 cells) and incubated for 24 hours, and the cells were incubated in a non-serum culture medium Opti-MEM together with a given concentration of each cathepsin purified from rat stomach (References #27 and #60-#62). Thereafter, the kit reagent (10 μl) was added to each well and the wells were incubated for another 1 hour. After incubation, each well was measured at the absorbance of 450 nm with a microplate reader.\n(§2) In the figure, an indicating bar scale represents 50 μm. […] In the figure, an indicating bar scale represents 50 μm.\nIn this experiment, the survival rate of the ALVA-41 cells was measured by incubating the cells with cathepsin E of a given concentration in the presence or absence of pepstatin A (100 μM) at 37° C. and pH 7.4 for 20 hours. The data is represented as a percentage with respect to the value for non-treated cell group. The data were obtained as an average value±SD from the data obtained by four separate experiments. […] In this experiment, the HEK293 cells were incubated together with a given concentration of natural cathepsin E, wild-type recombinant and the active site mutant (D98A/D283A) at 37° C. and pH 7.4 for 20 hours. The survival rate of the cells was measured and represented as a percentage with respect to the value of the non-treated cell group. The data represents an average value±SD from the data obtained by four separate experiments. In the value, *p<0.001 is a corresponding value for the cells treated with the mutant. […] In this experiment, ALVA-41 cells were treated solely with cathepsin E of a given concentration in the same manner as for FIG. 2A and the culture supernatant was recovered, followed by centrifuging to remove the precipitate and transferring a portion ([…]) of the supernatant to a freshly prepared culture of ALVA-41 cells. Thereafter, the cells were incubated at 37° C. and pH 7.4 for 20 hours in the absence (black round mark) or presence (white round mark) of pepstatin A (100 μM) and measured for the survival rate of the cells. The cell survival rate is represented as a percentage with respect to the value of the cells treated with the culture supernatant of the ALVA-41 cells treated with physiological saline. The data is represented as an average value±SD from the data obtained by four separate experiments. […] The cathepsin E activity (on the upper panel) and the cytotoxic activity (on the lower panel) of each column fraction were determined using freshly prepared ALVA-41 cells and a cathepsin E-specific substrate. The cell survival rate of each fraction treated with the protein at a given final concentration is represented as a percentage with respect to the value of the cells treated with physiological saline and as an average value±SD from the data obtained by four separate experiments. The cathepsin E activity is represented as a percentage of the total activity in the culture supernatant, and the data is represented as an average±SD from the data obtained by three separate experiments."}, "[2]": {"test_system": "various human prostate cancer cell lines", "experiment": "sensitivity of human prostate cancer cell lines to cathepsin E-induced apoptosis", "protocol": "as §1\nIn this assay, the cells to be tested were incubated to a ˜80% confluent state and then together with cathepsin E (100 μg/ml) or physiological saline at 37° C. and pH 7.4 for 20 hours, followed by measurements for the cell survival rate by a colorimetric assay. The cell survival rate is represented as a percentage of a corresponding value to the cells treated with physiological saline, and the data is represented as an average value±SD from the data obtained by four separate experiments. In this value, *p<0.001 represents a corresponding value to the cells treated with physiological saline. […] In this experiment, the cells were biotinylated with sulfo-NHS-SS-biotin as a […], decomposable reagent and lyzed, and the resulting cell lysate was incubated with streptoavidin-agarose beads at 4° C. for 2 hours. After the beads were washed, the related proteins were subjected to an immunoblot analysis using an anti-TRAIL antibody or an antibody to a TRAIL membrane-related receptor. The cell lysate portion was also subjected to a direct immunoblot analysis using an anti-β-actin antibody. As an alternative method, a culture medium of each cell line was immunoblot-analyzed using an anti-OPG antibody. […] Thereafter, the immunoblot was analyzed for its concentration in order to determine a quantity of a soluble TRAIL trimer. […]"}, "[3]": {"test_system": "human prostate cancer ALVA-41 cells", "experiment": "measurement for apoptosis (morphology, annexin V staining, TUNEL assay), ALVA-41 cells", "conditions": "ALVA-41 cells", "protocol": "The cells were measured for a morphological variation of apoptosis by phase contrast microscopy. The cells of prophase and post-phase apoptosis were detected by annexin V staining and TUNEL assay. In order to carry out the annexin V staining of ALVA-41 cells, the cells were exposed to cathepsin E or cathepsin L for 4 hours and centrifuged. After centrifugation, the separated cells were washed twice with PBS and incubated with fluorescein isothiocyanate-conjugated annexin V for 10 minutes at room temperature in a dark place. The cells that were positive as a result of the annexin V staining were then detected with fluorescence microscope. The TUNEL assay was carried out for the incubated tumor cells using Apop Tag Peroxidase Apoptosis Detection Kit and for heterografts using Tumor TACS In Situ Apoptosis Detection Kit.\nas §2"}}, "data": [{"substance": "cathepsin E", "values": [{"measurement": "number of living cells", "setting": "[1]", "value": "decreases the number of survived carcinoma cells in a dose-dependent fashion"}, {"measurement": "induction of apoptosis in human prostate cancer cell lines", "setting": "[2]; 100 μg/ml, 37° C., pH 7.4, 20 hours", "value": "induced apoptosis for all cells"}, {"measurement": "sensitivity as to cell survival effect, PC-3 cells relative to PPC-1 cells", "setting": "[2]; PC-3 versus PPC-1", "value": "approximately 20 times"}, {"measurement": "order of increasing sensitivity of cell lines to cathepsin E-induced apoptosis", "setting": "[2]; PPC-1, DU145, ALVA-41, PC-3", "value": "PPC-1<DU145≦ALVA-41<PC-3"}, {"measurement": "staining with annexin V and TUNEL reagent", "setting": "[3]; 50 μg/ml", "value": "positive"}, {"measurement": "morphological changes of treated cells", "setting": "[3]; microscopy, 100 μg/ml", "value": "morphological features of apoptosis"}]}]}
